Test results as given in ChEMBL document CHEMBL1201862, “PubChem BioAssay data set” (2004).
Activity calls are given as the source filed them.

Key:
[1] = target: DNA dC->dU-editing enzyme APOBEC-3G (Homo sapiens, UniProt Q9HC16); assay: Dose Response confirmation of small molecule APOBEC3G DNA Deaminase Inhibitors via a fluorescence-based single-stranded DNA deaminase assay. [Related pubchem assays (depositor defined):AID493012, AID493028]; assay type: functional
Hexokinase-1 = target: T1, Hexokinase-1 (Homo sapiens, UniProt P19367); assay: HK1 enzyme activation by HKDC1 hits – biochemical, selectivity assay for HKDC1 activator project, dose response (AID 504762); assay type: functional
T1 sequence (P19367 whole entry): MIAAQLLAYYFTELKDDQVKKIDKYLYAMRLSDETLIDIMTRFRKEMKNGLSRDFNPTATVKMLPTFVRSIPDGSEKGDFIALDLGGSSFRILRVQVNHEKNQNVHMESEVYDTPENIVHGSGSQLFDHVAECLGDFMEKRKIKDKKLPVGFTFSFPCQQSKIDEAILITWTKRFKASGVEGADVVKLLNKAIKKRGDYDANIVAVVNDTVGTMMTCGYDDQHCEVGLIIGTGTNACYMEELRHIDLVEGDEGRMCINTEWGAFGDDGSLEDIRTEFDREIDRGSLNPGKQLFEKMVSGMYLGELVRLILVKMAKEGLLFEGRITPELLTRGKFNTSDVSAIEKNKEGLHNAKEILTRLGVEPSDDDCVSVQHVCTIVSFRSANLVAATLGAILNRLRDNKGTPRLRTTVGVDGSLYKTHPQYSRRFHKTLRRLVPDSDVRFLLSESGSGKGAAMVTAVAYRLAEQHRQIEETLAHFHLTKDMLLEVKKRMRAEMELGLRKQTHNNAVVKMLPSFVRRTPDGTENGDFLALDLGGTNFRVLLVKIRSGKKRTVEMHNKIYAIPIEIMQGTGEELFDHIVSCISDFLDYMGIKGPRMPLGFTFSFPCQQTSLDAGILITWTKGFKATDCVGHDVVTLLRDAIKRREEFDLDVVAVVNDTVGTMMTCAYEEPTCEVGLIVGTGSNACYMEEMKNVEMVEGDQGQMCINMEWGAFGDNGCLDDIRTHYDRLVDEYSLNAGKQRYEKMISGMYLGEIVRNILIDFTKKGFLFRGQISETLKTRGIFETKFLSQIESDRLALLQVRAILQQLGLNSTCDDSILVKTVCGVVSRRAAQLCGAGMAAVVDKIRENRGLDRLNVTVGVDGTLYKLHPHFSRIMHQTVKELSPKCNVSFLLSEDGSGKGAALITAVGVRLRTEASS

[2] = target: DNA dC->dU-editing enzyme APOBEC-3A (Homo sapiens, UniProt P31941); assay: A3A deaminase inhibition for selectivity – biochemical, dose response (AID 504722); assay type: functional
DNA dC->dU-editing enzyme APOBEC-3A, sequence (P31941 whole entry): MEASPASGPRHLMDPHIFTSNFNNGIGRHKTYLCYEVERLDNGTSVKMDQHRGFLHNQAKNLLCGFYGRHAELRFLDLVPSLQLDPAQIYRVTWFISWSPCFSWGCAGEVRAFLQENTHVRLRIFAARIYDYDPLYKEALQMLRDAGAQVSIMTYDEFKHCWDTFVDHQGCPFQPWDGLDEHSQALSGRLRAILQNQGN

[3] = target: Glucose-6-phosphate 1-dehydrogenase (Homo sapiens, UniProt P11413); assay: inhibition of Homo sapiens G6PD, dose series – biochemical, fluorescence, selectivity assay for P. falciparum G6PD inhibitor project, dose response (AID 504792); assay type: functional
Glucose-6-phosphate 1-dehydrogenase, sequence (P11413 whole entry): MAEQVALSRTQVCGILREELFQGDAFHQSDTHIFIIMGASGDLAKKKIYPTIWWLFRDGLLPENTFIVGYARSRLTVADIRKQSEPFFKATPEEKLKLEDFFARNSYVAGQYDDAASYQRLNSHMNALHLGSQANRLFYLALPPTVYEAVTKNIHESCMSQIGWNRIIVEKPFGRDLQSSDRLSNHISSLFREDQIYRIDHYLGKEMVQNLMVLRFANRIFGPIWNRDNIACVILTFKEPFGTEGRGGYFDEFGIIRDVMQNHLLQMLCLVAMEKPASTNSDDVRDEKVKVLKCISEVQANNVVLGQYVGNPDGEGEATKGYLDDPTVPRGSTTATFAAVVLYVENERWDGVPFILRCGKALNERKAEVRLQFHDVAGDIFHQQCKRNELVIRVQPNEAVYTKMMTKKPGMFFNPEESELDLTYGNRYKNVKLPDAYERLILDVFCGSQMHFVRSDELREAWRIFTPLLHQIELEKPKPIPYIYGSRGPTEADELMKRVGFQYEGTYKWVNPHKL

Hexokinase HKDC1 = target: T2, Hexokinase HKDC1 (Homo sapiens, UniProt Q2TB90); assay: activation of HKDC1 glucose phosphorylation – biochemical, W721R variant, dose response (AID 504730); assay type: functional
T2 sequence (Q2TB90 whole entry): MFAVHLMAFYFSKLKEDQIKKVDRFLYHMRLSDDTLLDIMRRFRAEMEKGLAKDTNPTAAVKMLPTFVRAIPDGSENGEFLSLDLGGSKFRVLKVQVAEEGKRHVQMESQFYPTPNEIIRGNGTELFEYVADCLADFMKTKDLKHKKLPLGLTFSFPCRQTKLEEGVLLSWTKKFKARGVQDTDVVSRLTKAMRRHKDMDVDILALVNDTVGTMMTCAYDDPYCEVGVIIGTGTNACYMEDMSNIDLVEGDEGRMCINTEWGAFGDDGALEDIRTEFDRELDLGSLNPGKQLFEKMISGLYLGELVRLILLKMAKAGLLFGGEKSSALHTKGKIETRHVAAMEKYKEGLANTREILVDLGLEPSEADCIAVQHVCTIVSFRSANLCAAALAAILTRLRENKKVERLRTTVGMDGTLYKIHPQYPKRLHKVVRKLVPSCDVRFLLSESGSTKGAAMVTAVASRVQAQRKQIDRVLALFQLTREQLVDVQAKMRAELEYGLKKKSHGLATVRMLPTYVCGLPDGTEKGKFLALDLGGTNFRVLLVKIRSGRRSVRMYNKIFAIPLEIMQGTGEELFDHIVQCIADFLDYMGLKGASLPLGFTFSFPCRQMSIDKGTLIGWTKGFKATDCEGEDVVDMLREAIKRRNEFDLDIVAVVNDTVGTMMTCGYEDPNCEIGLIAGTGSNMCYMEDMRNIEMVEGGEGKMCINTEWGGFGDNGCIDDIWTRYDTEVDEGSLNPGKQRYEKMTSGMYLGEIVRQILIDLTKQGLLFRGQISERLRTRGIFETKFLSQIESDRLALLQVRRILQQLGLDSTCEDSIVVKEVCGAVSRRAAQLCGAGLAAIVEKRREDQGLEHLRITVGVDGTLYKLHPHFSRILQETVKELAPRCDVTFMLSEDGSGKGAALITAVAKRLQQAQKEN

[4] = decrease of insulin promoter-GFP reporter – imaging, high-content screening, mouse beta cells (AID 1628); assay type: functional; settings: MIN6
[5] = Luminescence Cell-Based Dose Retest to Confirm Inhibitors of Cancer Stem Cells. [Related pubchem assays (depositor defined):AID2717, AID2721]; assay type: functional; settings: Homo sapiens
[6] = MIN6 cell viability loss – mouse insulinoma, cytotoxicity control, dose response (AID 2122); assay type: functional;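 note: confirmatory high-throughput counterscreen run to flag cytotoxic compounds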
[7] = target: T3, E3 ubiquitin-protein ligase XIAP (Homo sapiens, UniProt P98170); assay: small molecules displacing peptide from XIAP – biochemical, IAP family, fluorescence polarization (AID 1018); assay type: functional
T3 sequence (P98170 whole entry): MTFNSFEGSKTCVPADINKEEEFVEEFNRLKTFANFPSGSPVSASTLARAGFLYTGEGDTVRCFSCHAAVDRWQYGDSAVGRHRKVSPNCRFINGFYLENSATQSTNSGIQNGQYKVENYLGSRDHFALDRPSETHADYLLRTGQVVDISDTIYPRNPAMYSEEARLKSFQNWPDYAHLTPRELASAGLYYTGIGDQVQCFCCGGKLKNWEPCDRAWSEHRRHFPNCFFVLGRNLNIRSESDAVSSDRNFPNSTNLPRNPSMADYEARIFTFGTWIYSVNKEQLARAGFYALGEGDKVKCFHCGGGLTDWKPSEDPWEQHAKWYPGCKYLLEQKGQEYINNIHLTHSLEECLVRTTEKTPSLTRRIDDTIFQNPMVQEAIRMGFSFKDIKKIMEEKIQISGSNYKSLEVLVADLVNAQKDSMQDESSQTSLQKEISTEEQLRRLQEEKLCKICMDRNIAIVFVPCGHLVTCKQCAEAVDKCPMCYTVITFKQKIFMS

[8] = target: T3, E3 ubiquitin-protein ligase XIAP; assay: Counter Screen using XIAP-Bir3 for Chemical Antagonists of Bir1/2 domains of IAP-family anti-apoptotic proteins. [Related pubchem assays (depositor defined):AID1018, AID1449, AID1514, AID1638, AID1749, AID1750, AID488957, AID488963]
[9] = target: 5-hydroxytryptamine receptor 5A (Homo sapiens, UniProt P47898); assay: Counterscreen for agonists of OPRM1-OPRD1 heterodimerization: luminescence-based cell-based high throughput dose response assay to identify agonists of 5-hydroxytryptamine (serotonin) 5A receptor (HTR5A). [Related pubchem assays (depositor defined):AID504326, AID504355, AID504692, AID504904, AID504905]; assay type: functional
[10] = target: Delta-type opioid receptor (Homo sapiens, UniProt P41143); assay: Counterscreen for agonists of heterodimerization of the mu 1 (OPRM1) and delta 1 (OPRD1) opioid receptors: Luminescence-based cell-based high throughput dose response assay to identify agonists of OPRD1 homodimerization. [Related pubchem assays (depositor defined):AID504326, AID504355, AID504692, AID504904, AID504905]; assay type: functional
Delta-type opioid receptor, sequence (P41143 whole entry): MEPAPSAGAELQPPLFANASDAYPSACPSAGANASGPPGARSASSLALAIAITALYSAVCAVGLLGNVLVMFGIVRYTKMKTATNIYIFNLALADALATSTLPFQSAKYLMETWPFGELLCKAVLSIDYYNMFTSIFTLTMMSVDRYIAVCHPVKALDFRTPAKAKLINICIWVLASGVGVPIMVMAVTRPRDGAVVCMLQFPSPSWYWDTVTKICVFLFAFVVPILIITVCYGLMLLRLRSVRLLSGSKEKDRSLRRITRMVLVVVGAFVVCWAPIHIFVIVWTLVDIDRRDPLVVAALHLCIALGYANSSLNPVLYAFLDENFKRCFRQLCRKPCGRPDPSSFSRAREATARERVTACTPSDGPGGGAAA

Mu-type opioid receptor = Mu-type opioid receptor (Homo sapiens, UniProt P35372); assay: Counterscreen for agonists of heterodimerization of the mu 1 (OPRM1) and delta 1 (OPRD1) opioid receptors: Luminescence-based cell-based high throughput dose response assay to identify agonists of OPRM1 homodimerization.; assay type: functional;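 note: U2OS cells expressing OPRM1 and beta-arrestin as split beta-galactosidase partners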
Mu-type opioid receptor, sequence (P35372 whole entry): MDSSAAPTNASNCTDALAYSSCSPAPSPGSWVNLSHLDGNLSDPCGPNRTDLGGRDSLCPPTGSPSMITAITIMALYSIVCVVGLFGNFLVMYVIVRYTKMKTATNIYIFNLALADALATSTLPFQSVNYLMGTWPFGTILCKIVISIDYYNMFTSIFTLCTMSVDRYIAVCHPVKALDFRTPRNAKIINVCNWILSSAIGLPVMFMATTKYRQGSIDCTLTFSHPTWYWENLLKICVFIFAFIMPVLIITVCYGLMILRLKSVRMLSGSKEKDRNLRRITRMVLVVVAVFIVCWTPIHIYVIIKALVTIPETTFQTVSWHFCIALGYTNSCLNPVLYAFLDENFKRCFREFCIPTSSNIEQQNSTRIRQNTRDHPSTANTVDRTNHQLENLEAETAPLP

[11] = viability of uninfected HEp-2 cells – cell-based, HTS, cytotoxicity control for RSV inhibitor project, dose response (AID 2410); assay type: functional; settings: human respiratory syncytial virus
CAAX prenyl protease 2 = target: T4, CAAX prenyl protease 2 (Saccharomyces cerevisiae S288c, UniProt Q03530); assay type: biochemical
T4 sequence (Q03530 whole entry): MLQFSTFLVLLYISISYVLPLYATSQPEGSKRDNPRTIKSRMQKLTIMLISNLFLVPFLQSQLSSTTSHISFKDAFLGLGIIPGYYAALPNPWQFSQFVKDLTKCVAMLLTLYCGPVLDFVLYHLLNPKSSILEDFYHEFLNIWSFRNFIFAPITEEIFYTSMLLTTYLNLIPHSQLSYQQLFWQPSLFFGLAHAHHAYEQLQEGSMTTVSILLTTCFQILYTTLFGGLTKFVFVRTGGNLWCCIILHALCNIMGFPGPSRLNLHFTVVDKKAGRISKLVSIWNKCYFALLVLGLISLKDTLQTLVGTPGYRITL

CAAX prenyl protease 1 = target: T5, CAAX prenyl protease 1 (Saccharomyces cerevisiae S288c, UniProt P47154); assay: yeast CAAX protease Ste24 inhibition – biochemical, S. cerevisiae, plate reader, cherry-pick, dose response (AID 488815)
T5 sequence (P47154 whole entry): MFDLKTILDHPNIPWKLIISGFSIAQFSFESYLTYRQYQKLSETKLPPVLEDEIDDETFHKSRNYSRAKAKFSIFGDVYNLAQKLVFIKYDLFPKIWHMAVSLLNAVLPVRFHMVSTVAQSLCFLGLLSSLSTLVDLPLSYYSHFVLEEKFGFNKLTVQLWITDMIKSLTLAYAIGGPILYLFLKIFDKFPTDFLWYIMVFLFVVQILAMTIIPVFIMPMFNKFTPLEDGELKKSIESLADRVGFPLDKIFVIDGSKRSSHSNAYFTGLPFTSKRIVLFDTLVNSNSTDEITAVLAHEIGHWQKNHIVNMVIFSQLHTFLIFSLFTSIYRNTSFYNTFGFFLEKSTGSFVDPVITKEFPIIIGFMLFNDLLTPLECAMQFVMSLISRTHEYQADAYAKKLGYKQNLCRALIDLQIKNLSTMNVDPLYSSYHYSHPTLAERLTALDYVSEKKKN

Beta-galactosidase = Beta-galactosidase (Escherichia coli, UniProt Q8VNN2); assay: detection-enzyme interference by beta-gal modulators – biochemical, E. coli enzyme, set 3, artefact control for CCR6 antagonist project, dose response (AID 504712); assay type: functional
Beta-galactosidase, sequence (Q8VNN2 whole entry): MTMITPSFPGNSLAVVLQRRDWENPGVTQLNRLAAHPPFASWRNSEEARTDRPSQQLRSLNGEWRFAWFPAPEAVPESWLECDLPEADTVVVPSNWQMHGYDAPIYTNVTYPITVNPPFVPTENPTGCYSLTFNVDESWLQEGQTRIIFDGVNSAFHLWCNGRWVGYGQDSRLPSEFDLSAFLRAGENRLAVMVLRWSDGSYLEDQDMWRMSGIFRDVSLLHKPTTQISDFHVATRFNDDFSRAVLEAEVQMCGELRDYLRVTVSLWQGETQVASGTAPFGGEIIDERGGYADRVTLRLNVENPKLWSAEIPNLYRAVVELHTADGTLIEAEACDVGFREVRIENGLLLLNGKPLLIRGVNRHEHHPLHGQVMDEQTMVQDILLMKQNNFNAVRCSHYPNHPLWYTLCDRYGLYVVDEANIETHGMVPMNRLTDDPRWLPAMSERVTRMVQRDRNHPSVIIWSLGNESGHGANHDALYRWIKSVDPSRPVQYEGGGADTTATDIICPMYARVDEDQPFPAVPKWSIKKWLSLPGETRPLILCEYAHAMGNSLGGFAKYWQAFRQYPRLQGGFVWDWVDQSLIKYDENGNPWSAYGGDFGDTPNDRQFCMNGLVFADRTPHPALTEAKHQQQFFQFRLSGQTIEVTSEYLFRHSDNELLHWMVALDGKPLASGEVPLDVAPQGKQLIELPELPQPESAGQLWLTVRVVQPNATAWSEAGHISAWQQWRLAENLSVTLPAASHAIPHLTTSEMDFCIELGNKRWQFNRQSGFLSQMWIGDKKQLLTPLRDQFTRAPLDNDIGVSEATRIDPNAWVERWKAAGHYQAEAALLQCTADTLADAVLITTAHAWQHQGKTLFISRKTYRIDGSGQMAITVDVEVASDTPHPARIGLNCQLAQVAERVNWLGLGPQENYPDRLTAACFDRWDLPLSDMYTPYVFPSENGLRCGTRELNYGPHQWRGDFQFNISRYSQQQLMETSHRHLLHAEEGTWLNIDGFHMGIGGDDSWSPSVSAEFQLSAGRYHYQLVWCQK

[12] = target: C-C chemokine receptor type 6 (Homo sapiens, UniProt P51684); assay: antagonism of CCR6 beta-arrestin recruitment – cell-based, luminescent beta-arrestin readout, dose response (AID 504728); assay type: functional
C-C chemokine receptor type 6, sequence (P51684 whole entry): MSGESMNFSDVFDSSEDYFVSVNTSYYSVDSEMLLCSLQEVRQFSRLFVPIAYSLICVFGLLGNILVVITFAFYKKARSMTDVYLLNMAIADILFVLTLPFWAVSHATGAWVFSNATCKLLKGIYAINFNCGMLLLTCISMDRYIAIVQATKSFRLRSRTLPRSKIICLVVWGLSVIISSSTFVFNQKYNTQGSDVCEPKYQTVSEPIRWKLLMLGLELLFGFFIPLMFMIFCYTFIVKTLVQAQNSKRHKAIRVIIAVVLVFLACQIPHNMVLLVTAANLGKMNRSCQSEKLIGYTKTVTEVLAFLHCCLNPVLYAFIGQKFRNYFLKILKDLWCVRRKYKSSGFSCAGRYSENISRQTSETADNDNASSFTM

[13] = target: G-protein coupled receptor 55 (Homo sapiens, UniProt Q9Y2T6); assay: selective activators of receptor GPR55 – imaging, U2OS cells, beta-arrestin-GFP redistribution, primary screen (AID 1961); assay type: functional
G-protein coupled receptor 55, sequence (Q9Y2T6 whole entry): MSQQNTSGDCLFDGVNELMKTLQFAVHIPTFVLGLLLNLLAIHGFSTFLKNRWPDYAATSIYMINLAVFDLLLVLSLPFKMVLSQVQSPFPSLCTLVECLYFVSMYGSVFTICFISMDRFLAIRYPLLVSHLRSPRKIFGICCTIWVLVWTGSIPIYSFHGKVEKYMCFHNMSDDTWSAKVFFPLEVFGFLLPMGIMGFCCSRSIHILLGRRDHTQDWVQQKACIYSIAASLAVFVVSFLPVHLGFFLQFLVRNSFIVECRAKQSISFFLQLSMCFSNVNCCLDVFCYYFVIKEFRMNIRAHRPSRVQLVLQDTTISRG

Phosphomannomutase 2 = Phosphomannomutase 2 (Homo sapiens, UniProt O15305); assay: Counter screen SAR assay for PMM2 inhibitors via a fluorescence intensity assay. [Related pubchem assays (depositor defined):AID1545, AID1574]
Phosphomannomutase 2, sequence (O15305 whole entry): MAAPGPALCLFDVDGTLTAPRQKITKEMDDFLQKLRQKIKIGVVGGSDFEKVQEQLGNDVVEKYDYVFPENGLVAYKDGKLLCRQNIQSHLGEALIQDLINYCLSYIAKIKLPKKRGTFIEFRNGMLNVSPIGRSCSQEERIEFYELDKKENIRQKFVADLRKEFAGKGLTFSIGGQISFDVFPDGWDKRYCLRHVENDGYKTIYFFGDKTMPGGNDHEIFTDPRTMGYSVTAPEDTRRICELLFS

[14] = target: Phosphoethanolamine/phosphocholine phosphatase (Homo sapiens, UniProt Q8TCT1); assay: SAR assay for compounds that inhibit PHOSPHO1. [Related pubchem assays (depositor defined):AID1545, AID1565, AID1574]
Phosphoethanolamine/phosphocholine phosphatase, sequence (Q8TCT1 whole entry): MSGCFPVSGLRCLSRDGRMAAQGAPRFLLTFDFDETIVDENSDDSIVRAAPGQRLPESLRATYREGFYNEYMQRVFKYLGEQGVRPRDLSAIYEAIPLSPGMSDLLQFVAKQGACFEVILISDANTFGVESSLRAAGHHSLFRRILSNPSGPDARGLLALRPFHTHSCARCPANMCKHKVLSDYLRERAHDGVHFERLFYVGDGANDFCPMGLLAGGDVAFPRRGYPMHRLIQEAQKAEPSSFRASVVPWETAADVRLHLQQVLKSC

[15] = target: T6, Mannose-6-phosphate isomerase (Homo sapiens, UniProt P34949); assay: phosphomannose isomerase inhibition – biochemical, fluorescence intensity, confirmation (AID 1535)
T6 sequence (P34949 whole entry): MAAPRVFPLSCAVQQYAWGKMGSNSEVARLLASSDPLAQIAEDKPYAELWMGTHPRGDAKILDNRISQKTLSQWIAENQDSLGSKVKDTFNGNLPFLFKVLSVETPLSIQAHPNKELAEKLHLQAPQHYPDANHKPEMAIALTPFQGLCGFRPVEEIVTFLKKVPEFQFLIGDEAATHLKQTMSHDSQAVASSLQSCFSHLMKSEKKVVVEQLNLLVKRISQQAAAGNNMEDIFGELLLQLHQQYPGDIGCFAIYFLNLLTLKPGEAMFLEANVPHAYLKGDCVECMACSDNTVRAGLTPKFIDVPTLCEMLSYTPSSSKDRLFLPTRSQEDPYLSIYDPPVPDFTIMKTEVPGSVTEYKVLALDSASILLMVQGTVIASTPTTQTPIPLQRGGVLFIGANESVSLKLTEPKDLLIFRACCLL

DNA dC->dU-editing enzyme APOBEC-3G, sequence (Q9HC16 whole entry): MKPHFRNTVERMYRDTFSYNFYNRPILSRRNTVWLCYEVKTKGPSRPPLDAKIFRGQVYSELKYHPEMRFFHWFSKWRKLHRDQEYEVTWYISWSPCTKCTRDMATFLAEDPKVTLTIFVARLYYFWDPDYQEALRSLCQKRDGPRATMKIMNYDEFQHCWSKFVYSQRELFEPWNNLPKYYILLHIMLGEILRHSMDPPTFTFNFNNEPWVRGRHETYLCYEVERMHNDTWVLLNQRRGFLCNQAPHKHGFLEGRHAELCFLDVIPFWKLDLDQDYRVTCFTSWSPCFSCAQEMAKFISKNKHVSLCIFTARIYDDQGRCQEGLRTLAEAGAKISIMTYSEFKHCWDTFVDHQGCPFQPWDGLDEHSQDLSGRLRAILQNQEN

In the case of `CC(NC(=O)c1sc2cc([N+](=O)[O-])ccc2c1Cl)C(C)(C)C` (centres undefined), the IC50 [1] is reported as 18.4 µM (active), the EC50 (Hexokinase-1) is reported as 46.8 µM (inactive) and the IC50 [2] is reported as > 100 µM (inactive). For the same compound, the IC50 [3] was > 80 µM (inactive) and the EC50 (Hexokinase HKDC1) was 23.6 µM (inactive).
With `COC(=O)c1c(NC(=O)Cc2cccs2)sc2c1CCC(C)C2` (centres undefined) the IC50 [4] was 6.23 µM (active), the AC50 [5] was 2.78 µM (active) and the IC50 [6] was > 16 µM (inactive).
For `CCCc1nc2oc3cc(OC)ccc3c(=O)c2c(=O)n1Cc1ccco1`, the IC50 [7] was > 100 µM (not active) and the IC50 [8] was > 100 µM (inactive).
With `COC(=O)CCCNC(=O)c1ccc(OC2CCN(CCc3ccccc3)CC2)cc1` the EC50 [9] was > 92.5 µM (inactive), the EC50 [10] was > 92.5 µM (inactive) and the EC50 (Mu-type opioid receptor) was > 92.5 µM (inactive).
For `Cc1ccc(C(C)NC(=O)/C(C#N)=C\c2c(C)[nH]c3ccccc23)cc1` (centres undefined), the IC50 [7] was > 100 µM (not active), the CC50 [11] was 19.4 µM (active) and the IC50 [8] was > 100 µM (inactive).
In the case of `N#Cc1c(N2CCN(C(=O)c3ccccc3)CC2)nc(-c2ccccc2)c2c1CCCC2`, the AC50 (CAAX prenyl protease 2) is reported as 8.3 µM (active), the AC50 (CAAX prenyl protease 1) is reported as 1.6 µM (active) and the IC50 (Beta-galactosidase) is reported as > 66.6 µM (inactive). The IC50 [12] was > 66.6 µM (inactive).
With `COCCCN=C(S)NNC(=O)c1cccnc1` the EC50 [13] was > 32 µM (inactive).
In the case of `O=c1c2c([N+](=O)[O-])cc([N+](=O)[O-])cc2sn1-c1ccc(F)c(Cl)c1`, the IC50 (Phosphomannomutase 2) is reported as 1.26 µM (active), the IC50 [14] is reported as 0.192 µM (active) and the IC50 [15] is reported as 12 µM (active).
